Data on 14 compounds can be found in patent US20090306102A1, “2-PYRIDIN-2-YL-QUINAZOLINE DERIVATIVES AS POTASSIUM CHANNEL MODULATING AGENTS FOR THE TREATMENT OF RESPIRATORY DISEASES” (priority 2005, published 2009).

The first series deals with T1, hSK3 channels (Homo sapiens, UniProt Q9UGI6).
T1 construct: expressed in transfected cells; host or cells: HEK293
Briefly: whole-cell patch-clamp recording of ionic current through SK channels (subtype 3) in HEK293 cells expressing hSK3. It is filed as cell-based. The protocol:
The ionic current through small-conductance Ca^2+-activated K^+ channels (SK channels, subtype 3) is recorded using HEK293 tissue culture cells expressing hSK3 channels in a whole-cell configuration of the patch-clamp technique as described in e.g. WO 2006/100212.
For activators a SC100 value may be estimated. The SC100 value is defined as the Stimulating Concentration required for increasing the baseline current by 100%. The SC100 value determined for Compound A1 of the invention was well below 0.1 μM, which is an indication of its strong SK3 activating properties.
Turning to `Cc1cccc(-c2nc(Nc3ccc(Cl)cc3)c3ccccc3n2)n1` [Compound A1, (4-Chloro-Phenyl)-[2-(6-Methyl-Pyridin-2-yl)-Quinazolin-4-yl]-Amine], the “SC100 value (Stimulating Concentration required for increasing the baseline current by 100%)” value is reported as “below 0.1 μM”.

Tested on in the next series: not given
Test: not given
As to `Clc1ccc(Nc2nc(-c3nccc4ccccc34)nc3ccccc23)cc1` [Compound B10, (4-Chloro-Phenyl)-(2-Isoquinolin-1-yl-Quinazolin-4-yl)-Amine], the melting point lay within 279 to 280.5 °C. The compound `Clc1ccc(Nc2nc(-c3cccc(Cl)n3)nc3ccccc23)cc1` [Compound B5, (4-Chloro-Phenyl)-[2-(6-Chloro-Pyridin-2-yl)-Quinazolin-4-yl]-Amine] displayed a melting point of 211.9 to 213.2 °C. The same measure, in the same setting: to `O=C(c1ccccc1)c1cccnc1-c1nc(NC2CCCCC2)c2ccccc2n1` [Compound B1, [2-(4-Cyclohexylamino-Quinazolin-2-yl)-Pyridin-3-yl]-Phenyl-Methanone] belongs 204 to 208 °C.

Turning to `Clc1cccc(-c2nc(NC3CCCCC3)c3ccccc3n2)n1` [Compound B4, [2-(6-Chloro-Pyridin-2-yl)-Quinazolin-4-yl]-Cyclohexyl-Amine], the melting point fell in the range of 218.4 to 220.9 °C.

In turn, `Cc1cccc(-c2nc(NC3CCCCC3)c3ccccc3n2)n1` [Compound B2, Cyclohexyl-[2-(6-Methyl-Pyridin-2-yl)-Quinazolin-4-yl]-Amine] yielded a melting point of 253.1 to 254.9 °C. Consider `Fc1cccc(-c2nc(Nc3ccc(Cl)cc3)c3ccccc3n2)n1` [Compound A2, (4-Chloro-Phenyl)-[2-(6-Fluoro-Pyridin-2-yl)-Quinazolin-4-yl]-Amine], for which the melting point is 118.3 to 121.4 °C. Compound `Clc1ccc(CNc2nc(-c3nccc4ccccc34)nc3ccccc23)cc1` [Compound B11, (4-Chloro-Benzyl)-(2-Isoquinolin-1-yl-quinazolin-4-yl)-Amine] came in with a melting point of 221.4 to 224.5 °C. Regarding `Clc1ccc(CNc2nc(-c3cccc(Cl)n3)nc3ccccc23)cc1` [Compound B6, (4-Chloro-Benzyl)-[2-(6-chloro-Pyridin-2-yl)-Quinazolin-4-yl]-Amine], the melting point fell in the range of 187.4 to 189.7 °C. `Cc1cccc(-c2nc(NCc3ccc(Cl)cc3)c3ccccc3n2)n1` [Compound B3, (4-Chloro-Benzyl)-[2-(6-Methyl-Pyridin-2-yl)-Quinazolin-4-yl]-Amine] yielded a melting point of 209.9 to 212.2 °C. Take `Cc1cccc(-c2nc(Nc3ccc(Cl)cc3)c3ccccc3n2)n1` [Compound A1, (4-Chloro-Phenyl)-[2-(6-Methyl-Pyridin-2-yl)-Quinazolin-4-yl]-Amine]: the melting point was in the range of 256.1 to 259.1 °C. Same read-out and setting: in the case of `c1ccc2c(-c3nc(NC4CCCCC4)c4ccccc4n3)nccc2c1` [Compound B9, Cyclohexyl-(2-Isoquinolin-1-yl-Quinazolin-4-yl)-Amine] it was 274.8 to 276.9 °C. Still for that read-out and setting: in the case of `COc1cccc(-c2nc(Nc3ccc(Cl)cc3)c3ccccc3n2)n1` [Compound A4, (4-Chloro-Phenyl)-[2-(6-Methoxy-Pyridin-2-yl)-Quinazolin-4-yl]-Amine] it was 156.8 to 160 °C. Consider `Oc1cccc(-c2nc(Nc3ccc(Cl)cc3)c3ccccc3n2)n1` [Compound A5, 6-[4-(4-Chloro-Phenylamino)-Quinazolin-2-yl]-Pyridin-2-ol], for which the melting point is over 350 °C. `Clc1ccc(Nc2nc(-c3cccc(Br)n3)nc3ccccc23)cc1` [Compound A3, [2-(6-Bromo-Pyridin-2-yl)-Quinazolin-4-yl]-(4-Chloro-Phenyl)-Amine] displayed a melting point of 242.4 to 247.9 °C.
